Data as given in ChEMBL document CHEMBL1201862, “PubChem BioAssay data set” (2004).
Structures can show the parent of a compound that is named as a salt. The source made the active and inactive calls.

Columns and labels:
[1] = luciferase reporter signal suppression in cells – H4 neuroglioma cells, luminescence, dose response (AID 1990); type: functional, cell-based
[2] = luciferase reporter signal reduction – luminescence, H4-C neuroglioblastoma cells, dose response (AID 2458); type: functional, cell-based;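 also: H4 neuroglioblastoma cells stably carrying a luciferase reporter gene fusion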
[3] = cells; type: functional, cell-based
[4] = Luminescence Cell-Based Dose Response HTS to Identify Inhibitors of 5'UTR Stem-Loop Driven Prion Protein mRNA Translation in H4 Neuroglioblastoma Cells. [Related pubchem assays: 1827 (Project Summary), 1813 (Primary HTS)]; type: functional
[5] = alpha-synuclein stem-loop luciferase translation blockers – H4 neuroglioma cells, luminescence, confirmation (AID 1988); type: functional, cell-based
[6] = alpha-synuclein stem-loop translation blockers – luminescence, H4 neuroglioblastoma cells, dose confirmation, confirmation (AID 2454); type: functional, cell-based;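 also: H4 neuroglioblastoma cells carrying an alpha-synuclein 5'UTR luciferase reporter; potency for inhibition of the luciferase signal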
[7] = HEK-293T viability loss after treatment – luminescence, T-cell screen hits, cytotoxicity control for TCR NF-kB inhibitor project, dose response (AID 489026); type: functional, cell-based;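 also: cells exposed to compound about 14 hours before the viability readout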
[8] = cells; type: functional, cell-based; remark: listed apart in the source
[9] = target: T1, Nuclear receptor subfamily 0 group B member 1 (Homo sapiens, UniProt P51843); type: functional, cell-based;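 also: HEK293T cells transfected with SF-1 and DAX-1 plus StAR promoter luciferase reporter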
T1 sequence (P51843 whole entry): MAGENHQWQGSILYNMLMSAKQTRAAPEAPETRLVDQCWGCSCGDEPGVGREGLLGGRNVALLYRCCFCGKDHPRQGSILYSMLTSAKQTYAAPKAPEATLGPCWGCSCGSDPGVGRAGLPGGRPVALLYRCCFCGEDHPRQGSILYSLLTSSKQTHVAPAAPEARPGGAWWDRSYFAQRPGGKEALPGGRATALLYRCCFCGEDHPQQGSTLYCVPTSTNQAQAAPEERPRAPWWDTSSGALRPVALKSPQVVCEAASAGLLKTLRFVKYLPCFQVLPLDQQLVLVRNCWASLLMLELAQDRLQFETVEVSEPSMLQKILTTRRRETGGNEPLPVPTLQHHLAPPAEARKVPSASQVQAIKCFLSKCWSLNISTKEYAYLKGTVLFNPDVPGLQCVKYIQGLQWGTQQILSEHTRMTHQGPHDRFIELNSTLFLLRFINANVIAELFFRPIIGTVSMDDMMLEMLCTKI

[10] = target: T2, Mannose-6-phosphate isomerase (Homo sapiens, UniProt P34949); assay: MPI enzyme activity inhibition – biochemical, fluorescence intensity, coupled assay, primary screen (AID 1209)
T2 sequence (P34949 whole entry): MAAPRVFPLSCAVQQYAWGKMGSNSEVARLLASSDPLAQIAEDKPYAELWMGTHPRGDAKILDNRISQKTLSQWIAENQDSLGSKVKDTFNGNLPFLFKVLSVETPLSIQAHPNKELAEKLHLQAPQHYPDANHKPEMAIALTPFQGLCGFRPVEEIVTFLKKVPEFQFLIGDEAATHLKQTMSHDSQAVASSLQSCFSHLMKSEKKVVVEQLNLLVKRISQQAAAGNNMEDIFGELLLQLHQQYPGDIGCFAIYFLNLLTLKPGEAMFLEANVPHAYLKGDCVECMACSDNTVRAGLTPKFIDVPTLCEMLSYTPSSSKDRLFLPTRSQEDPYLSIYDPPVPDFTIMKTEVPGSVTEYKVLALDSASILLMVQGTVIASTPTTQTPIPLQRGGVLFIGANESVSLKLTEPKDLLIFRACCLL

[11] = target: T3, Heat shock factor protein 1 (Mus musculus, UniProt P38532); assay: enhancement of HSF1-driven luciferase signal – cell-based, NIH3T3, luminescence, dose retest, confirmation (AID 435004); type: functional;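 also: stress induced by proteasome inhibitor MG132 added 30 min after compound; luciferase reporter driven by HSF1 response element in NIH3T3 cells; actives raise luminescence as potentiators of the MG132 stress response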
T3 sequence (P38532 whole entry): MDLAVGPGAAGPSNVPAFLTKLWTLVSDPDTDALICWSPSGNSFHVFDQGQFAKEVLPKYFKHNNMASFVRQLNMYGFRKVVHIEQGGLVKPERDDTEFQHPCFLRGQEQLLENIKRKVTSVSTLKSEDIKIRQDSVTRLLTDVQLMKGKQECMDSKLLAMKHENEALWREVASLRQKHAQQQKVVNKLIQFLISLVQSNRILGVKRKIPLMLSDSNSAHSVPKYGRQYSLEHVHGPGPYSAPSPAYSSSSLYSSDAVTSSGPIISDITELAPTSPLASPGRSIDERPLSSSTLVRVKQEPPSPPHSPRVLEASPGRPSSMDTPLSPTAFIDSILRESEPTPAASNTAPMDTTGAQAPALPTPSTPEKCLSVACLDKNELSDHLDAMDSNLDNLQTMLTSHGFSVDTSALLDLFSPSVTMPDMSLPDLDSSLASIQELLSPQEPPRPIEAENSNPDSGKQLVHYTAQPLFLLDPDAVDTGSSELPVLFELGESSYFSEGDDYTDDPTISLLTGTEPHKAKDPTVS

[12] = target: T4, Eukaryotic translation initiation factor 4H (Homo sapiens, UniProt Q15056); assay: inhibitors of translation initiation factor eIF4H – SAR follow-up (AID 435011); type: functional
[13] = target: T5, Polyadenylate-binding protein 1 (Homo sapiens, UniProt P11940); assay: PABP inhibition in translation initiation, SAR follow-up (AID 435018); type: functional
T5 sequence (P11940 whole entry): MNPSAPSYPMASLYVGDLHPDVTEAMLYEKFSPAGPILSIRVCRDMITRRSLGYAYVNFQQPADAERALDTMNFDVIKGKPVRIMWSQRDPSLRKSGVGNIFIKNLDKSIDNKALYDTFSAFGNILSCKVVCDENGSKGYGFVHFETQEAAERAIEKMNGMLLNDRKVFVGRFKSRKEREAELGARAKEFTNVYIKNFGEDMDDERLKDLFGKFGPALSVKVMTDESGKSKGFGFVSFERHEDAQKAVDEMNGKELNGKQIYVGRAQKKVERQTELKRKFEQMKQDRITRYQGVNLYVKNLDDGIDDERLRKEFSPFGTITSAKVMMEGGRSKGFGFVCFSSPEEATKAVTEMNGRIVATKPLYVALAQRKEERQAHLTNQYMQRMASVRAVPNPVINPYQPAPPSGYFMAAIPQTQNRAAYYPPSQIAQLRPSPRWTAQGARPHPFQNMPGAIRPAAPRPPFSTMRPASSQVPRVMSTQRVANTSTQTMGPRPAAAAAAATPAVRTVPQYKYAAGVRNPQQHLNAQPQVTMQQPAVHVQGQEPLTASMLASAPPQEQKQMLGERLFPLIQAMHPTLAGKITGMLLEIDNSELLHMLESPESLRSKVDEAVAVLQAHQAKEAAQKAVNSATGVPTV

[14] = target: T6, Hexokinase HKDC1 (Homo sapiens, UniProt Q2TB90); assay: inhibition of HKDC1 glucose phosphorylation – biochemical, W721R variant, dose response (AID 504729); type: functional
T6 sequence (Q2TB90 whole entry): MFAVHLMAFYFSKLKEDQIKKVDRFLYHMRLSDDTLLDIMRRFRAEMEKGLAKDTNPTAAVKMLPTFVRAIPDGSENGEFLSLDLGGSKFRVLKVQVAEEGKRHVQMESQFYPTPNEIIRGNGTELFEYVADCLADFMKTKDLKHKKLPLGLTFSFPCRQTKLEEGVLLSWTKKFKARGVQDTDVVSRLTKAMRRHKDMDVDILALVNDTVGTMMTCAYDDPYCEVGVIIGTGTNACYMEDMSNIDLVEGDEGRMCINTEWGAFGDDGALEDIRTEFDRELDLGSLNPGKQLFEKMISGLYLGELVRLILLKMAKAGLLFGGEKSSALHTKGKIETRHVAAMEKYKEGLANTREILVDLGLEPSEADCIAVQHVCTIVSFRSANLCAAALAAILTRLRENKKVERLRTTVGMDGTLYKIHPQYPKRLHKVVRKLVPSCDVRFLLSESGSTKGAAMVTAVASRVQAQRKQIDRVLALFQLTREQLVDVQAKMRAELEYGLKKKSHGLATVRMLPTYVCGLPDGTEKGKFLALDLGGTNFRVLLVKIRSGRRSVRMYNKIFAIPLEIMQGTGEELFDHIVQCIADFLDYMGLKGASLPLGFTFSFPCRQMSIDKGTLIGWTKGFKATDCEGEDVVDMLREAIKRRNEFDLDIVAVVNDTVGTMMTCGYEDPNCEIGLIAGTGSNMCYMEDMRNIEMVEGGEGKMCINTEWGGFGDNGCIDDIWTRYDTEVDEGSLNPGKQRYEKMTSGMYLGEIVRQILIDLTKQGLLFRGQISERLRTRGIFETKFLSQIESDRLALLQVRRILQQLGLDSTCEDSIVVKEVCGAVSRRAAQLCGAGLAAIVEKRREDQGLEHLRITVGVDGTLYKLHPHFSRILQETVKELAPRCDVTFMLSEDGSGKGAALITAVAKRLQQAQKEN

[15] = target: T7, Voltage-gated N-type calcium channel alpha-1B subunit/Amyloid beta A4 precursor protein-binding family A member 1 (Homo sapiens, UniProt Q00975+Q02410); type: protein assay
T7 sequence (Q00975 whole entry): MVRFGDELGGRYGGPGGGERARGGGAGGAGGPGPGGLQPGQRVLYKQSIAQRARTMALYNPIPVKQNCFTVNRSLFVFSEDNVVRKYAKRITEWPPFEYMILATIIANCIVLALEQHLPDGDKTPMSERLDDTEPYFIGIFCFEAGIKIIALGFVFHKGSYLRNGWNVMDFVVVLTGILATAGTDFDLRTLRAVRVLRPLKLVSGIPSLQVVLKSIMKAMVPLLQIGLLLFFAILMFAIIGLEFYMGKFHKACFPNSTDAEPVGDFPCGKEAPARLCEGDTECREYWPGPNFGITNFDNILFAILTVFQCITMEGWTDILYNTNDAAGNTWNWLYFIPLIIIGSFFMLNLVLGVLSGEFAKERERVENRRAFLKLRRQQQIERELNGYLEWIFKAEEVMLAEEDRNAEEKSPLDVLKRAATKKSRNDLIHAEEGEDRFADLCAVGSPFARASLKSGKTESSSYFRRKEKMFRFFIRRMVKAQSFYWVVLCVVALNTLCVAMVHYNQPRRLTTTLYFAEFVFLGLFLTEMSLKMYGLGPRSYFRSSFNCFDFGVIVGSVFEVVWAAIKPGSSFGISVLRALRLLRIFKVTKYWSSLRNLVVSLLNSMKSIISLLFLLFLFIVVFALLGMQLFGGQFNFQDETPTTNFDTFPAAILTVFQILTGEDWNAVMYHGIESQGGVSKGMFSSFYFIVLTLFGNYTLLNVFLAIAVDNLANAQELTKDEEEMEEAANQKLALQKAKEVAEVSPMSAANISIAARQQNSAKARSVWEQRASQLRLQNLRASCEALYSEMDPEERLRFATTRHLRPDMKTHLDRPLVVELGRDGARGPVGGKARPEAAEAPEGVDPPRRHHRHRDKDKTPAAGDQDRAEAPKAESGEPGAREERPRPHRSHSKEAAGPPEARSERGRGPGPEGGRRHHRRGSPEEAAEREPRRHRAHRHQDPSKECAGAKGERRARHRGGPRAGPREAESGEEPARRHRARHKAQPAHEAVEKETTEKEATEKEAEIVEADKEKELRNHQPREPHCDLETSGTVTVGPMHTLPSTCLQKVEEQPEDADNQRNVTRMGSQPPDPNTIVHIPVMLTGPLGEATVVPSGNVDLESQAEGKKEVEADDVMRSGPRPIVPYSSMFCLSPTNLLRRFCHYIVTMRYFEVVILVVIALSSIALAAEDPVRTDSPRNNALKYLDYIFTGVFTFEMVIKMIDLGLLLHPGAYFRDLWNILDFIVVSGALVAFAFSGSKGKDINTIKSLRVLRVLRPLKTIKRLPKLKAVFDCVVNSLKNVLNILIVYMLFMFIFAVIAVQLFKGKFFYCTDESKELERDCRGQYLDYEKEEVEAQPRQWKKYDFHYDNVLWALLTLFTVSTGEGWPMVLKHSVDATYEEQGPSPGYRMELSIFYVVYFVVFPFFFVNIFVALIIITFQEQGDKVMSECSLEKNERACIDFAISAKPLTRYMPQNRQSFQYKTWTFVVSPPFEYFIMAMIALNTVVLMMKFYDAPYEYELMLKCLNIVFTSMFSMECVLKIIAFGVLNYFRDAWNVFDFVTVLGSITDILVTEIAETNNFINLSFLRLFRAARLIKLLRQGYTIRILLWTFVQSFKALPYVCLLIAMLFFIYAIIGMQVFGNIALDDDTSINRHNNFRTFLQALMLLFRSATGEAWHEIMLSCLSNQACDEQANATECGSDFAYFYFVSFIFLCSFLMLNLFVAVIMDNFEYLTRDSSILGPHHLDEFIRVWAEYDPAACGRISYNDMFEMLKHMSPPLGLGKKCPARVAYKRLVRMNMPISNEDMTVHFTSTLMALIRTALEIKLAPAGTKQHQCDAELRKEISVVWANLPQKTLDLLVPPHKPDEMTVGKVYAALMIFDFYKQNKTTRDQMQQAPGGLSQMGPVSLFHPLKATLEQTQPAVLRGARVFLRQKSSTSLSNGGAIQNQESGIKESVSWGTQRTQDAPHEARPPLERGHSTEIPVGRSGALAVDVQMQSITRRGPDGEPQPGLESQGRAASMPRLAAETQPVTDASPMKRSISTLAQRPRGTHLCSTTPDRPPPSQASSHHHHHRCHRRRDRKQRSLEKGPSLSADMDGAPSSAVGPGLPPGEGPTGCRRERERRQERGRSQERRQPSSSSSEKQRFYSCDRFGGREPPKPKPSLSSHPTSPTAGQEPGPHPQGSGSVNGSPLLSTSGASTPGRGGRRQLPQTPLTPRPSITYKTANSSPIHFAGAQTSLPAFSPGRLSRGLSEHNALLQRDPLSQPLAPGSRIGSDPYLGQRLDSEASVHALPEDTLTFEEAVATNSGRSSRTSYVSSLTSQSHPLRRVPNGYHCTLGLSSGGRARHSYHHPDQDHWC
T7 sequence (Q02410 whole entry): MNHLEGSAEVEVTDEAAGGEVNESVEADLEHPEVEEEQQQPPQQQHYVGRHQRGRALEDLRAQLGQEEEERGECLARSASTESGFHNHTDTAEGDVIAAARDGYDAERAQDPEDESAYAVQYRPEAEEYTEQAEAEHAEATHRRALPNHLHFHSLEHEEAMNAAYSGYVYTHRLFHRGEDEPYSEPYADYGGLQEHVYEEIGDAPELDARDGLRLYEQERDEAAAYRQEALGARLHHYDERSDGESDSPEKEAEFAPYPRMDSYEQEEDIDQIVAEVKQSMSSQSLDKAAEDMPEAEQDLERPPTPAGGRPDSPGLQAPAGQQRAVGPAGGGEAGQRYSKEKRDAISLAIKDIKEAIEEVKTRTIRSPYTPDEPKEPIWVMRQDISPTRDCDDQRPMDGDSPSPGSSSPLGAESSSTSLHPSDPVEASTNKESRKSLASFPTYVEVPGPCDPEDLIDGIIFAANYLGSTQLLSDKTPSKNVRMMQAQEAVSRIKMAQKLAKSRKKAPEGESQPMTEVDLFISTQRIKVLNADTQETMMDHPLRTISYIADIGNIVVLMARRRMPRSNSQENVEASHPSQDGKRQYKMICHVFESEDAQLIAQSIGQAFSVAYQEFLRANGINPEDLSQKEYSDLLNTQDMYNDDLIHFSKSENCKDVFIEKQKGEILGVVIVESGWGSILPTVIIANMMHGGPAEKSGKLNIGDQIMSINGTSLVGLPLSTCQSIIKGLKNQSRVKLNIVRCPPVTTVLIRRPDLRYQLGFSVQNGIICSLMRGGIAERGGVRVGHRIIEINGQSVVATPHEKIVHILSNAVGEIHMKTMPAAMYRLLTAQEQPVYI

[16] = target: T7, Voltage-gated N-type calcium channel alpha-1B subunit/Amyloid beta A4 precursor protein-binding family A member 1; type: protein assay; remark: listed apart in the source
[17] = target: T7, Voltage-gated N-type calcium channel alpha-1B subunit/Amyloid beta A4 precursor protein-binding family A member 1; assay: disruptors of Mint-PDZ/N-type channel peptide interaction – biochemical, HTRF, SAR follow-up (AID 2489); type: functional
[18] = target: T4, Eukaryotic translation initiation factor 4H; assay: eIF4H binding inhibition – biochemical, uHTS, fluorescence polarization, translation initiation inhibitor project, primary screen (AID 2012)
[19] = target: T5, Polyadenylate-binding protein 1; assay: blockers of PABP interaction with poly(A) – biochemical, fluorescence polarization, […] (AID 2014)
[20] = target: DNA dC->dU-editing enzyme APOBEC-3A (Homo sapiens, UniProt P31941); assay: Dose Response confirmation of small molecule APOBEC3A DNA Deaminase Inhibitors via a fluorescence-based single-stranded DNA deaminase assay. [Related pubchem assays (depositor defined):AID493011, AID493024]; type: functional
DNA dC->dU-editing enzyme APOBEC-3A, sequence (P31941 whole entry): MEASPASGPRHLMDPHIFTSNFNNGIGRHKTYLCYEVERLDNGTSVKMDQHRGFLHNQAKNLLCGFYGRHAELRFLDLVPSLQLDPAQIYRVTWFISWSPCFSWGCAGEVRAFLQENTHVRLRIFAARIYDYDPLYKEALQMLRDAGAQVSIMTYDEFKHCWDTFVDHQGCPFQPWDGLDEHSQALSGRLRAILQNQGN

[21] = target: T8, DNA dC->dU-editing enzyme APOBEC-3G (Homo sapiens, UniProt Q9HC16); type: functional
T8 sequence (Q9HC16 whole entry, the tested form may be a part): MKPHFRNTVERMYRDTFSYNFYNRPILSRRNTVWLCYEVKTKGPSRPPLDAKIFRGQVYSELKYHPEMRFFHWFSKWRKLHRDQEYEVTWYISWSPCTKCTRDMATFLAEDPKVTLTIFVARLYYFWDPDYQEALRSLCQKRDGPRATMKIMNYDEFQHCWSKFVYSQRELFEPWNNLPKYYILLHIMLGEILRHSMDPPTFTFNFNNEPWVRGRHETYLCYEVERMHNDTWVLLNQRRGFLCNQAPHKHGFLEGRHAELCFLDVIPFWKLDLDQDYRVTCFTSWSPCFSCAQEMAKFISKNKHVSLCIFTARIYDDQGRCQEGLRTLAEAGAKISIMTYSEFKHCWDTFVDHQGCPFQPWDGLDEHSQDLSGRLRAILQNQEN

[22] = target: T9, Carboxy-terminal domain RNA polymerase II polypeptide A small phosphatase 1 (Homo sapiens, UniProt Q9GZU7); assay: CTDSP1 inhibitors, concentration-response, biochemical, absorbance readout, ultra-high-throughput screen actives (AID 540297); type: functional
T9 sequence (Q9GZU7 whole entry): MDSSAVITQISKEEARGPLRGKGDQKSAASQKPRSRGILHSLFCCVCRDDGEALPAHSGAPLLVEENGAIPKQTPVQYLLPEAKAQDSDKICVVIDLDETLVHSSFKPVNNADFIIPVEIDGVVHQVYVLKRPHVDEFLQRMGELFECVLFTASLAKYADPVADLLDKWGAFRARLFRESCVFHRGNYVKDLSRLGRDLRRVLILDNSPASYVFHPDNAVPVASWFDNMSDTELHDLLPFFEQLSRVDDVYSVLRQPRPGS

[23] = A Cell Based Secondary Assay To Explore Cytotoxicity of Compounds that Sensitize Mycobacterium Tuberculosis to Beta-Lactam Antibiotics.; type: functional
[24] = test system: HeLa; assay: viability loss in HeLa cells – cell-based, 24 h, cherry-picked samples, cytotoxicity control, dose response (AID 504726); type: functional; conditions: Homo sapiens;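 also: potency for cytotoxicity as loss of luminescence signal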
[25] = target: Induced myeloid leukemia cell differentiation protein Mcl-1 (Homo sapiens, UniProt Q07820); type: functional
Induced myeloid leukemia cell differentiation protein Mcl-1, sequence (Q07820 whole entry): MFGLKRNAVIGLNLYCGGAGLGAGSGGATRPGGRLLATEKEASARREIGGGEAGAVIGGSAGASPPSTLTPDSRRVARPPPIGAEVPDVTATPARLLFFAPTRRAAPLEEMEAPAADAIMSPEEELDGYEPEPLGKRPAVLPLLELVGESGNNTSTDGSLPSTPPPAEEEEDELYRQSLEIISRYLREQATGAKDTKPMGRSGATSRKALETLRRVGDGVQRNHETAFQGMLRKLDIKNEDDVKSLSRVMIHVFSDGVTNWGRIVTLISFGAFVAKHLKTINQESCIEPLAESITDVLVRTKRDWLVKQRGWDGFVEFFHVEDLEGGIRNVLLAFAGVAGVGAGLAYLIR

[26] = target: T8, DNA dC->dU-editing enzyme APOBEC-3G; assay: Dose Response confirmation of small molecule APOBEC3G DNA Deaminase Inhibitors via a fluorescence-based single-stranded DNA deaminase assay. [Related pubchem assays (depositor defined):AID493012, AID493028]; type: functional
[27] = target: DNA (cytosine-5)-methyltransferase 1 (Homo sapiens, UniProt P26358); assay: inhibition of DNA methylation by DNMT1 – biochemical, fluorescent molecular beacon, confirmation (AID 602386); type: functional
[28] = target: Estrogen receptor beta (Homo sapiens, UniProt Q92731); assay: blockers of SRC-3 recruitment to ERβ – biochemical, ELISA, streptavidin-HRP readout, orthogonal assay, confirmation (AID 1060)
[29] = target: Glutathione-S-transferase (Schistosoma japonicum, UniProt Q26513); assay: GST-antibody interaction or FRET quenching – biochemical, TR-FRET, artefact control for Vif-APOBEC3G degradation inhibitor project, dose response (AID 1117362); type: functional
[30] = target: Aspartyl aminopeptidase (Plasmodium falciparum 3D7, UniProt Q8I2J3)
[31] = target: Procathepsin L (Homo sapiens, UniProt P07711)

CC[C@]1(O)CC2CN(CCc3c([nH]c4ccccc34)[C@@](C(=O)OC)(c3cc4c(cc3OC)N(C=O)[C@H]3[C@@](O)(C(=O)OC)[C@H](OC(C)=O)[C@]5(CC)C=CCN6CC[C@]43[C@@H]65)C2)C1 (stereo not given in full) [VINCRISTINE SULFATE]
EC50 [1]: < 0.1 µM (active) | EC50 [2]: 0.047 µM (active) | EC50 [3]: 0.063 µM (active) | EC50 [4]: < 0.1 µM (active) | EC50 [5]: < 0.1 µM (active) | EC50 [6]: 0.055 µM (active) | IC50 [7]: > 80 µM (inactive) | IC50 [8]: > 67.5 µM (inactive) | IC50 [9]: > 0.278 µM (active)

Cc1ccc2cccnc2c1NC(=S)NC(=O)c1ccccc1
IC50 [10]: > 50 µM (not active) | EC50 [11]: > 260 µM (inactive)

Cc1ccc(NC(=O)C2CCCN2C(=O)Oc2ccccc2)cc1 (stereo not given)
IC50 [12]: > 100 µM (inactive) | IC50 [13]: > 100 µM (inactive)

COc1ccc(NC(=O)CSc2ccc(-c3ccco3)nn2)c(OC)c1
IC50 [12]: 86.5 µM (active) | IC50 [13]: > 100 µM (inactive) | IC50 [14]: 5.8 µM (active)

CCOC(=O)c1sc2nc(-c3ccco3)c3c(c2c1N)CC(C)(C)OC3
IC50 [15]: 9.58 µM (active) | IC50 [16]: 5.26 µM (active) | IC50 [17]: > 56.8 µM (inactive)

COc1ccc(C(CC(=O)N2CCCCC2)c2c(OC)cc(OC)c3c(-c4ccccc4)cc(=O)oc23)cc1 (stereo not given)
IC50 [18]: 7.25 µM (active) | IC50 [19]: 33.4 µM (active) | IC50 [20]: 10.4 µM (active) | IC50 [21]: 25.9 µM (active) | IC50 [22]: 4.7 µM (active)

CCC(C)Nc1c2c(nc3c(-c4ccccc4)c(C)nn13)CCC2 (stereo not given)
CC50 [23]: > 40 µM (active)

Cc1cc(C)n2nc(C(=O)OC(C)C(=O)c3cc(C)c(C)cc3C)nc2n1 (stereo not given)
AC50 [24]: > 350 µM (inactive)

Oc1ccccc1/C=N/c1ccccc1-c1nc2ccccc2[nH]1
AC50 [24]: 241 µM (active)

Oc1cccc2cc3cccc(O)c3c(O)c12
IC50 [15]: 19.9 µM (active) | IC50 [16]: 38.3 µM (active) | IC50 [25]: 2.39 µM (active) | IC50 [26]: 16.9 µM (active) | IC50 [27]: 1.9 µM (active)

O=C(c1ccc2nc(-c3ccco3)c(-c3ccco3)nc2c1)N1CCC2(CC1)OCCO2
IC50 [15]: 2.45 µM (active) | IC50 [16]: 1.39 µM (active) | IC50 [28]: 8.97 µM (not active) | IC50 [17]: > 56.8 µM (inactive) | IC50 [29]: > 100 µM (active)

Cc1ccc(Cl)cc1NC(=S)Nn1cnnc1
IC50 [30]: 2.06 µM (active) | IC50 [31]: > 59.6 µM (not active)

C=CCn1c(SCc2ccc(Cl)cc2)nc2c1c(=O)[nH]c(=O)n2C
EC50 [1]: 29.3 µM (active) | EC50 [2]: > 12 µM (not active) | EC50 [3]: > 12 µM (not active) | EC50 [4]: < 0.1 µM (active) | EC50 [5]: > 120 µM (not active) | EC50 [6]: > 12 µM (not active)

Cc1cccc(C(=O)Nc2ccc(S(=O)(=O)N3CCOCC3)cc2C)c1
IC50 [18]: > 100 µM (inactive) | IC50 [19]: 11.2 µM (active) | IC50 [20]: 4.44 µM (active) | IC50 [21]: 9.37 µM (active)

CCOC(=O)c1c(C)n(-c2ccccc2)c2ccc(OCCN(C)C)cc12
CC50 [23]: > 40 µM (active)
